Assay results: US20240309342A1, “QUORUM QUENCHING ENZYME, AND METHODS OF USING SAME” (MIGAL GALILEE RESEARCH INSTITUTE LTD., priority 2021, published 2024)

system: moLRP (marine origin Lactonase Related Protein), putative AHL lactonase of the PTE-Like-Lactonase (PLL) family from marine metagenomes, recombinant with 6×His …; assay: AHL lactonase activity of purified moLRP (hydrolysis of N-acyl homoserine lactones, Michaelis-Menten kinetics, pH indicator cresol purple); format: biochemical, marine metagenome (Tara Oceans); MAG of phylum Chloroflexi; details: hydrolysis of AHLs by moLRP; Table 1; FIG. 3 (C4-HSL): E0=0.4 μM, 27° C.; error = standard deviation, at least three independent measurements

Compound	Km	kcat
CCCCCC(=O)CC(=O)NC1CCOC1=O (racemic) [3-Oxo C8-HSL, N-(3-oxooctanoyl)-DL-homoserine lactone]	74.8 ± 11 µM	0.519 ± 0.02 s⁻¹
CCCC(=O)CC(=O)N[C@H]1CCOC1=O [3-Oxo C6-HSL, N-(3-oxohexanoyl)-L-homoserine lactone]	150 ± 13 µM	1.30 ± 0.10 s⁻¹
CCCC(=O)N[C@H]1CCOC1=O [C4-HSL, N-butyryl-L-homoserine lactone]	96.5 ± 15.3 µM	1.85 ± 0.11 s⁻¹
CCCCCCC(=O)N[C@H]1CCOC1=O [C7-HSL, N-heptanoyl-L-homoserine lactone]	112 ± 19 µM	0.230 ± 0.02 s⁻¹
